According to patent US20060069132A1, “Azolecarboxamide herbicides” (priority 2004, published 2006):

Assays:
giant foxtail [1] = assay: Test A pre-/postemergence herbicide test; assay type: in vivo, Setaria faberi; details: for Plant response rating, Foxtail, Giant: Postemergence; for Foxtail, Giant plant response rating: Preemergence
Procedure, shortened: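 Sandy loam soil given preemergence directed spray; plants at 2 to 10 cm, one- to two-leaf stage, sprayed to runoff postemergence, compounds in non-phytotoxic solvent with surfactant. Injury rated visually versus untreated controls after about ten greenhouse days, 0 (no effect) to 100 (complete control); dash means not tested.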

bermudagrass = assay: Test C pre-/postemergence herbicide test; assay type: in vivo, Cynodon dactylon; details: for Plant response rating, Bermudagrass: visual, 12 to 14 days
Procedure, shortened: (§1)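 Preemergence: seeds planted and treated with compound in non-phytotoxic solvent with surfactant; postemergence: plants at 2 to 18 cm (1- to 4-leaf stage) sprayed likewise. Kept in greenhouse 12 to 14 days, then visually rated against controls, 0 (no effect) to 100 (complete control).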

large crabgrass = assay: Test C pre-/postemergence herbicide test; assay type: in vivo, Digitaria sanguinalis; details: for Plant response rating, Crabgrass, Large: visual, 12 to 14 days
Procedure, shortened: as §1

giant foxtail [2] = assay: Test C pre-/postemergence herbicide test; assay type: in vivo, Setaria faberi; details: for Plant response rating, Foxtail, Giant: visual, 12 to 14 days
Procedure, shortened: as §1

kochia = assay: Test C pre-/postemergence herbicide test; assay type: in vivo, Kochia scoparia; details: for Plant response rating, Kochia: visual, 12 to 14 days
Procedure, shortened: as §1

morningglory = assay: Test C pre-/postemergence herbicide test; assay type: in vivo, Ipomoea coccinea; design: key to Plant response rating, Morningglory: 0 = no effect, 100 = complete control; details: for Plant response rating, Morningglory: visual, 12 to 14 days
Procedure, shortened: as §1

yellow nutsedge = assay: Test C pre-/postemergence herbicide test; assay type: in vivo, Cyperus esculentus; details: for Plant response rating, Nutsedge, Yellow: visual, 12 to 14 days
Procedure, shortened: as §1

pigweed = assay: Test C pre-/postemergence herbicide test; assay type: in vivo, Amaranthus retroflexus; details: for Plant response rating, Pigweed: visual, 12 to 14 days
Procedure, shortened: as §1

common ragweed = assay: Test C pre-/postemergence herbicide test; assay type: in vivo, Ambrosia elatior; design: key to Plant response rating, Ragweed: 0 = no effect, 100 = complete control; details: for Plant response rating, Ragweed: visual, 12 to 14 days
Procedure, shortened: as §1

soybean = assay: Test C pre-/postemergence herbicide test; assay type: in vivo, Glycine max; details: for Plant response rating, Soybean: visual, 12 to 14 days
Procedure, shortened: as §1

[3] = 2000 g ai/ha, 0 to 100 scale, 0 no effect, 100 complete control
[4] = 125 g ai/ha, scale 0 (no effect) to 100 (complete control), preemergence
[5] = 250 g ai/ha, scale 0 to 100 (0 no effect, 100 complete control), preemergence
[6] = Preemergence, 500 g ai/ha, scale 0 to 100, 0 no effect, 100 complete control

Question: What does the source list for CCN1CCc2c(NC(=O)c3cc(C(C)(C)C)nn3CC)cccc2C1=O [Compound 63]?
Answer: Plant response rating, Foxtail, Giant (giant foxtail [1]; 500 g ai/ha, 0 to 100 scale, 0 no effect, 100 complete control): 50; Plant response rating, Foxtail, Giant (giant foxtail [1]; [3]): 80; Foxtail, Giant plant response rating (giant foxtail [1]; 500 g ai/ha, visual rating, 0 to 100 scale (0 no effect, 100 complete control)): 95; Foxtail, Giant plant response rating (giant foxtail [1]; [3]): 100; Plant response rating (0 = no effect, 100 = complete control), Bermudagrass (bermudagrass; 62 g ai/ha, preemergence): 50; Plant response rating, Bermudagrass (bermudagrass; [4]): 90; Plant response rating, Bermudagrass (bermudagrass; [5]): 90; Bermudagrass plant response rating (bermudagrass; [6]): 100; Plant response rating (0 = no effect, 100 = complete control), Crabgrass, Large (large crabgrass; 62 g ai/ha, preemergence): 10; Plant response rating, Crabgrass, Large (large crabgrass; [4]): 85; Plant response rating, Crabgrass, Large (large crabgrass; [5]): 90; Crabgrass, Large plant response rating (large crabgrass; [6]): 100; Plant response rating (0 = no effect, 100 = complete control), Foxtail, Giant (giant foxtail [2]; 62 g ai/ha, preemergence): 0; Plant response rating, Foxtail, Giant (giant foxtail [2]; [4]): 5; Plant response rating, Foxtail, Giant (giant foxtail [2]; [5]): 10; Foxtail, Giant plant response rating (giant foxtail [2]; [6]): 80; Plant response rating (0 = no effect, 100 = complete control), Kochia (kochia; 62 g ai/ha, preemergence): 30; Plant response rating, Kochia (kochia; [4]): 80; Plant response rating, Kochia (kochia; [5]): 90; Kochia plant response rating (kochia; [6]): 90; Plant response rating (0 = no effect, 100 = complete control), Morningglory (morningglory; 62 g ai/ha, preemergence): 0; Plant response rating, Morningglory (morningglory; [4]): 40; Plant response rating, Morningglory (morningglory; [5]): 40; Morningglory plant response rating (morningglory; [6]): 40; Plant response rating (0 = no effect, 100 = complete control), Nutsedge, Yellow (yellow nutsedge; 62 g ai/ha, preemergence): 0; Plant response rating, Nutsedge, Yellow (yellow nutsedge; [4]): 0; Plant response rating, Nutsedge, Yellow (yellow nutsedge; [5]): 0; Nutsedge, Yellow plant response rating (yellow nutsedge; [6]): 40; Plant response rating (0 = no effect, 100 = complete control), Pigweed (pigweed; 62 g ai/ha, preemergence): 100; Plant response rating, Pigweed (pigweed; [4]): 100; Plant response rating, Pigweed (pigweed; [5]): 100; Pigweed plant response rating (pigweed; [6]): 100; Plant response rating (0 = no effect, 100 = complete control), Ragweed (common ragweed; 62 g ai/ha, preemergence): 0; Plant response rating, Ragweed (common ragweed; [4]): 0; Plant response rating, Ragweed (common ragweed; [5]): 10; Ragweed plant response rating (common ragweed; [6]): 95; Plant response rating (0 = no effect, 100 = complete control), Soybean (soybean; 62 g ai/ha, preemergence): 0; Plant response rating, Soybean (soybean; [4]): 0; Plant response rating, Soybean (soybean; [5]): 10; Soybean plant response rating (soybean; [6]): 70
